{"source": "patent US20240277705A1", "about": "“DOSAGE REGIMENS FOR ECUBECTEDIN” (PHARMA MAR S.A., priority 2021, published 2024)", "tested_on": "patients with advanced solid tumors", "experiment": "Phase I dose-escalating study, safety and dose limiting toxicities", "type": "in vivo", "conditions": "for maximum tolerated dose: 3-hour i.v. infusion", "description": "Primary Study Objectives • Dose escalation phase: To identify the dose limiting toxicities (DLTs), and to determine the maximum tolerated dose (MTD) and the recommended dose (RD) of PM14 administered intravenously (i.v.) on two days (Day 1 and Day 8) or on Day 1 only, both every three weeks (q3wk) over three hours to patients with advanced solid tumors.\nFirst-in-human, open-label, dose-finding, phase I trial, using a classical 3+3 design followed by a continual reassessment method (CRM) (see Dose Escalation Schedule, below).\nPatients will be included in cohorts of a minimum of three or six patients to receive PM14 at successively increasing dose levels, starting at 0.25 mg/m2 for the Days 1 and 8 schedule. For the Day 1 schedule, the starting dose will be 4.5 mg/m^2.\nOpen-label, dose-escalating, phase I trial of PM14 administered as a 3-hour infusion i.v. every 3 weeks (q3wk) in human patients (pts) with advanced solid tumors, adequate organ function and ECOG PS score of 0-1. Two schedules were explored: Schedule A (Day 1 [D1], Day 8 [D8]) and Schedule B (D1).\nDetermination of MTD and RD: the MTD will be the lowest dose level explored during dose escalation in which one third or more of evaluable patients develop a DLT in Cycle 1. The CRM could be used to define the RD.\nSecondary Endpoints • Safety: patients will be evaluable for safety if they have received at least one partial infusion of PM14. AEs will be graded according to the NCI-CTCAE v.4. Additionally, treatment-related discontinuations and treatment compliance (dose reduction, skipped doses and/or treatment delays due to AEs), will be described. • Pharmacokinetics: PK analyses will be evaluated in plasma and urine by standard non-compartmental analysis (compartmental modeling may be performed if appropriate). Plasma samples for PM14 PK analysis will be obtained in Cycle 1 from all patients, and also in Cycle 2 from patients treated during Step D of the CRM. In addition, the urine produced during Day 1 of Cycle 1 and Cycle 2 will be collected from patients treated during Step D of the CRM. • Pharmacogenetics: the presence or absence of PGt polymorphisms in genes relevant for PM14 disposition (distribution, metabolism and excretion) from a single blood sample collected at any time during the trial (but preferably at the same time as the pre-treatment PK sample on Day 1 of Cycle 1) will be assessed to explain individual variability in main PK parameters. • Pharmacogenomics: this exploratory analysis will be performed in those patients who sign the Informed Consent Form (ICF) for the PGx study. mRNA or protein expression levels of factors involved in DNA repair mechanisms, or related to the mechanism of action of PM14, will be evaluated from available tumor tissue samples obtained at diagnosis or relapse and in cell-free ctDNA. Their mutational status might also be analyzed, if relevant. Their correlation with the clinical response and outcome after treatment will be assessed. • Efficacy: patients will be evaluable for efficacy if they receive at least one complete infusion of PM14 and have at least one clinical or radiological tumor assessment as per RECIST v.1.1 or serum markers, or if they are considered to have failed treatment. Treatment failure will be defined as clinical deterioration, death due to PD or treatment discontinuation due to any treatment-related toxicity before any appropriate tumor assessments have been performed. […]", "key": {"[1]": {"conditions": "Schedule A D1,D8, 3.0 mg/m^2 (n: 9)"}, "[2]": {"conditions": "Schedule A D1,D8, <3.0 mg/m^2 (n: 14)"}, "[3]": {"conditions": "Schedule A D1,D8, >3.0 mg/m^2 (n: 5)"}, "[4]": {"conditions": "Schedule B D1, 4.5 mg/m^2 (n: 6)"}, "[5]": {"conditions": "Schedule B D1, 5.6 mg/m^2 (n: 3)"}}}
{"smiles": "COc1c(C)cc2c(c1O)[C@@H]1[C@@H]3[C@@H]4SC[C@]5(N[C@H](CO)Cc6c5[nH]c5ccccc65)C(=O)OC[C@@H](c5c6c(c(C)c(OC(C)=O)c54)OCO6)N3[C@@H](O)[C@H](C2)N1C", "note": "[PM14, ECUBECTEDIN]", "values": [{"measurement": "DLTs at the RDs", "setting": "3.0 mg/n^2 D1,D8 (A) and 4.5 mg/n^2 D1 (B)", "result": "No DL-Ts"}, {"measurement": "maximum tolerated dose", "setting": "Schedule A (D1, D8 q3wk)", "result": 4.5, "unit": "mg/m^2"}, {"measurement": "ALT increase Gr 1-2, (%)", "setting": "[1]", "result": "(55.6%)"}, {"measurement": "ALT increase Gr 3, (%)", "setting": "[1]", "result": "(11.1%)"}, {"measurement": "AST increase Gr 1-2, (%)", "setting": "[1]", "result": "(77.8%)"}, {"measurement": "Anemia Gr 1-2, (%)", "setting": "[1]", "result": "(77.8%)"}, {"measurement": "Anemia Gr 3, (%)", "setting": "[1]", "result": "(11.1%)"}, {"measurement": "CPK increase Gr 1-2, (%)", "setting": "[1]", "result": "(22.2%)"}, {"measurement": "Diarrhoea Gr 1-2, (%)", "setting": "[1]", "result": "(11.1%)"}, {"measurement": "Nausea Gr 1-2, (%)", "setting": "[1]", "result": "(11.1%)"}, {"measurement": "Neutropenia Gr 1-2, (%)", "setting": "[1]", "result": "(11.1%)"}, {"measurement": "Neutropenia Gr 3, (%)", "setting": "[1]", "result": "(11.1%)"}, {"measurement": "Neutropenia Gr 4, (%)", "setting": "[1]", "result": "(11.1%)"}, {"measurement": "Vomiting Gr 1-2, (%)", "setting": "[1]", "result": "(11.1%)"}, {"measurement": "Vomiting Gr 3, (%)", "setting": "[1]", "result": "(11.1%)"}, {"measurement": "ALT increase Gr 1-2, (%)", "setting": "[2]", "result": "(35.7%)"}, {"measurement": "AST increase Gr 1-2, (%)", "setting": "[2]", "result": "(21.4%)"}, {"measurement": "Anemia Gr 1-2, (%)", "setting": "[2]", "result": "(85.7%)"}, {"measurement": "CPK increase Gr 1-2, (%)", "setting": "[2]", "result": "(42.9%)"}, {"measurement": "Constipation Gr 1-2, (%)", "setting": "[2]", "result": "(7.1%)"}, {"measurement": "Decreased appetite Gr 1-2, (%)", "setting": "[2]", "result": "(7.1%)"}, {"measurement": "Diarrhoea Gr 1-2, (%)", "setting": "[2]", "result": "(14.3%)"}, {"measurement": "Fatigue Gr 1-2, (%)", "setting": "[2]", "result": "(28.6%)"}, {"measurement": "Nausea Gr 1-2, (%)", "setting": "[2]", "result": "(42.9%)"}, {"measurement": "Neutropenia Gr 1-2, (%)", "setting": "[2]", "result": "(14.3%)"}, {"measurement": "Vomiting Gr 1-2, (%)", "setting": "[2]", "result": "(42.9%)"}, {"measurement": "ALT increase Gr 1-2, (%)", "setting": "[3]", "result": "(60.0%)"}, {"measurement": "ALT increase Gr 3, (%)", "setting": "[3]", "result": "(40.0%)"}, {"measurement": "AST increase Gr 1-2, (%)", "setting": "[3]", "result": "(100.0%)"}, {"measurement": "Anemia Gr 1-2, (%)", "setting": "[3]", "result": "(80.0%)"}, {"measurement": "Anemia Gr 3, (%)", "setting": "[3]", "result": "(20.0%)"}, {"measurement": "Constipation Gr 1-2, (%)", "setting": "[3]", "result": "(60.0%)"}, {"measurement": "Decreased appetite Gr 1-2, (%)", "setting": "[3]", "result": "(40.0%)"}, {"measurement": "Diarrhoea Gr 1-2, (%)", "setting": "[3]", "result": "(20.0%)"}, {"measurement": "Fatigue Gr 1-2, (%)", "setting": "[3]", "result": "(40.0%)"}, {"measurement": "Fatigue Gr 3, (%)", "setting": "[3]", "result": "(20.0%)"}, {"measurement": "Nausea Gr 1-2, (%)", "setting": "[3]", "result": "(80.0%)"}, {"measurement": "Neutropenia Gr 1-2, (%)", "setting": "[3]", "result": "(20.0%)"}, {"measurement": "Neutropenia Gr 4, (%)", "setting": "[3]", "result": "(40.0%)"}, {"measurement": "Vomiting Gr 1-2, (%)", "setting": "[3]", "result": "(60.0%)"}, {"measurement": "recommended dose (RD)", "setting": "Schedule A, on D1,D8", "result": 3.0, "unit": "mg/n^2"}, {"measurement": "maximum tolerated dose", "setting": "Schedule B (D1 q3wk)", "result": 5.6, "unit": "mg/rn^2"}, {"measurement": "ALT increase Gr 1-2, (%)", "setting": "[4]", "result": "(66.7%)"}, {"measurement": "ALT increase Gr 3, (%)", "setting": "[4]", "result": "(33.3%)"}, {"measurement": "AST increase Gr 1-2, (%)", "setting": "[4]", "result": "(50.0%)"}, {"measurement": "AST increase Gr 4, (%)", "setting": "[4]", "result": "(16.1%)"}, {"measurement": "Anemia Gr 1-2, (%)", "setting": "[4]", "result": "(83.3%)"}, {"measurement": "CPK increase Gr 1-2, (%)", "setting": "[4]", "result": "(33.3%)"}, {"measurement": "Decreased appetite Gr 1-2, (%)", "setting": "[4]", "result": "(16.7%)"}, {"measurement": "Fatigue Gr 1-2, (%)", "setting": "[4]", "result": "(50.0%)"}, {"measurement": "Headache Gr 1-2, (%)", "setting": "[4]", "result": "(16.7%)"}, {"measurement": "Nausea Gr 1-2, (%)", "setting": "[4]", "result": "(50.0%)"}, {"measurement": "Neutropenia Gr 3, (%)", "setting": "[4]", "result": "(16.7%)"}, {"measurement": "Neutropenia Gr 4, (%)", "setting": "[4]", "result": "(16.7%)"}, {"measurement": "Vomiting Gr 1-2, (%)", "setting": "[4]", "result": "(16.7%)"}, {"measurement": "ALT increase Gr 1-2, (%)", "setting": "[5]", "result": "(66.7%)"}, {"measurement": "ALT increase Gr 4, (%)", "setting": "[5]", "result": "(33.3%)"}, {"measurement": "AST increase Gr 1-2, (%)", "setting": "[5]", "result": "(33.3%)"}, {"measurement": "AST increase Gr 4, (%)", "setting": "[5]", "result": "(33.3%)"}, {"measurement": "Anemia Gr 1-2, (%)", "setting": "[5]", "result": "(33.3%)"}, {"measurement": "Anemia Gr 3, (%)", "setting": "[5]", "result": "(66.7%)"}, {"measurement": "CPK increase Gr 1-2, (%)", "setting": "[5]", "result": "(66.7%)"}, {"measurement": "Fatigue Gr 1-2, (%)", "setting": "[5]", "result": "(33.3%)"}, {"measurement": "Febrile neutropenia Gr 4, (%)", "setting": "[5]", "result": "(33.3%)"}, {"measurement": "Neutropenia Gr 1-2, (%)", "setting": "[5]", "result": "(33.3%)"}, {"measurement": "Neutropenia Gr 3, (%)", "setting": "[5]", "result": "(33.3%)"}, {"measurement": "Neutropenia Gr 4, (%)", "setting": "[5]", "result": "(33.3%)"}, {"measurement": "recommended dose (RD)", "setting": "Schedule B, on D1", "result": 4.5, "unit": "mg/n^2"}, {"measurement": "tolerability at the RDs", "setting": "patients with advanced solid tumors", "result": "well tolerated"}]}
